In ChEMBL document CHEMBL5230103, “Hydroxamic acid hybrids as the potential anticancer agents: An Overview” (Eur J Med Chem, 2020):
Counter-ions that a name gives are not always drawn.

Tests used:
518A2 = assay: Cytotoxicity against human 518A2 cells assessed as inhibition of cell growth by MTT assay; format: functional, cell-based
HCT-116 [1] = assay: Cytotoxicity against human HCT-116 cells assessed as inhibition of cell growth by MTT assay; format: functional, cell-based
PANC-1 = assay: Cytotoxicity against human PANC-1 cells assessed as inhibition of cell growth by MTT assay; format: functional, cell-based
HT-29 = assay: Cytotoxicity against human HT-29 cells assessed as inhibition of cell growth by MTT assay; format: functional, cell-based
[2] = Cytotoxicity against human MCF7/Topo cells assessed as inhibition of cell growth by MTT assay; format: functional, cell-based
KB-V1 = assay: Cytotoxicity against human vinblastine resistant KB-V1 cells assessed as inhibition of cell growth by MTT assay; format: functional, cell-based
[3] = Cytotoxicity against chicken heart fibroblast cells; format: toxicity, cell-based, Gallus gallus
HL-60 = assay: Antiproliferative activity against human HL-60 cells assessed as inhibition of cell growth by MTT assay; format: functional, cell-based
[4] = Cytotoxicity against human HuT 102 cells assessed as inhibition of cell growth by MTT assay; format: functional, cell-based
MCF7 [5] = assay: Cytotoxicity against human MCF7 cells assessed as inhibition of cell growth by SRB assay; format: functional, cell-based
Histone deacetylase = assay: Inhibition of HDAC (unknown origin); format: protein assay, Homo sapiens
Ramos = assay: Cytotoxicity against human Ramos cells assessed as inhibition of cell growth by SRB assay; format: functional, cell-based
SU-DHL-6 = assay: Cytotoxicity against human SU-DHL-6 cells assessed as inhibition of cell growth by SRB assay; format: functional, cell-based
SNU-398 = assay: Cytotoxicity against human SNU-398 cells assessed as inhibition of cell growth by SRB assay; format: functional, cell-based
Histone deacetylase 3 = Histone deacetylase 3 (Homo sapiens, UniProt O15379); assay: Inhibition of HDAC3 (unknown origin)
Sequence of Histone deacetylase 3 (O15379 whole entry): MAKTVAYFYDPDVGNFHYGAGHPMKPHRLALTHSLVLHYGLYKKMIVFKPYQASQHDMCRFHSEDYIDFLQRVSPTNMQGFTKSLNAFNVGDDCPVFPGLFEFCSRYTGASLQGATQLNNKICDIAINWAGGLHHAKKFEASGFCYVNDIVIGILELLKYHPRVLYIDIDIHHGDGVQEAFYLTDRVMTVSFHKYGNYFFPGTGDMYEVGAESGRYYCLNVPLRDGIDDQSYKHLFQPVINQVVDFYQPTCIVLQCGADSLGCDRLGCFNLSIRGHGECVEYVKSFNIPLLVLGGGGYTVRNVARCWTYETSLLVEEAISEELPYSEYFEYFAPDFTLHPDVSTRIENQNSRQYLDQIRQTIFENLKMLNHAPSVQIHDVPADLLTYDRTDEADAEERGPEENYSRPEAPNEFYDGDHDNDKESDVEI

U-937 [6] = assay: Antiproliferative activity against human U-937 cells assessed as inhibition of cell growth by MTT assay; format: functional, cell-based
NCI-H929 = assay: Antiproliferative activity against human NCI-H929 cells assessed as inhibition of cell growth by MTT assay; format: functional, cell-based
U-266 = assay: Antiproliferative activity against human U-266 cells assessed as inhibition of cell growth by MTT assay; format: functional, cell-based
SH-SY5Y = assay: Antiproliferative activity against human SH-SY5Y cells assessed as inhibition of cell growth by MTT assay; format: functional, cell-based
MCF7 [7] = assay: Antiproliferative activity against human MCF7 cells assessed as inhibition of cell growth by MTT assay; format: functional, cell-based
Histone deacetylase 1 = Histone deacetylase 1 (Homo sapiens, UniProt Q13547); assay: Inhibition of HDAC1 (unknown origin)
Sequence of Histone deacetylase 1 (Q13547 whole entry): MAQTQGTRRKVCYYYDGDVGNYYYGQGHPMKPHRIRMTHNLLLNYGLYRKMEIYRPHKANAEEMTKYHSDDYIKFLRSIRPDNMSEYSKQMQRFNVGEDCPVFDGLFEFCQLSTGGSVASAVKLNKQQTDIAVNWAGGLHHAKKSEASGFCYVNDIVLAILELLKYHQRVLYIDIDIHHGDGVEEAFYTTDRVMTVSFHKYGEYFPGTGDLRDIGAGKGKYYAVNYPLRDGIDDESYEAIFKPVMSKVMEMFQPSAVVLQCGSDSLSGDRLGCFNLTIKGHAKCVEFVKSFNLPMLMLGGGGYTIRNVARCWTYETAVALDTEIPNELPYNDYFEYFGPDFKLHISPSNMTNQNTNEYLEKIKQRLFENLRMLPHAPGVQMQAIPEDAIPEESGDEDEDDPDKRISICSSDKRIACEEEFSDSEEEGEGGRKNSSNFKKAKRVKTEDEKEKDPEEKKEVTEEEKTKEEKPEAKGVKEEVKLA

Histone deacetylase 2 = Histone deacetylase 2 (Homo sapiens, UniProt Q92769); assay: Inhibition of HDAC2 (unknown origin)
Sequence of Histone deacetylase 2 (Q92769 whole entry): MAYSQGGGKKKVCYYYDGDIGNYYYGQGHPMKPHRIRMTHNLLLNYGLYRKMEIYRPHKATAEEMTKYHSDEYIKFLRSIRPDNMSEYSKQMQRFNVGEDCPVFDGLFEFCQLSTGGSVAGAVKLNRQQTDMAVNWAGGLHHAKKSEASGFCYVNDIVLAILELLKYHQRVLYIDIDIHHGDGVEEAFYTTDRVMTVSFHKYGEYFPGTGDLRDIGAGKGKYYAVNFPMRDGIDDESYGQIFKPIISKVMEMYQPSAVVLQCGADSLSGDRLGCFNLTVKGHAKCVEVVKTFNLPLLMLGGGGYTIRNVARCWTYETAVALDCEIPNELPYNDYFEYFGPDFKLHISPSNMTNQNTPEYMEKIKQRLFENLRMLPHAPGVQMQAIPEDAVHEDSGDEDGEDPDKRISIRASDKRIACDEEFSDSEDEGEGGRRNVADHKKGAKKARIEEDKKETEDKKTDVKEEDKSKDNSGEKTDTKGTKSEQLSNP

[8] = target: T1, Protein deacetylase HDAC6 (Homo sapiens, UniProt Q9UBN7); assay: Inhibition of HDAC6 (unknown origin)
T1 sequence (Q9UBN7 whole entry): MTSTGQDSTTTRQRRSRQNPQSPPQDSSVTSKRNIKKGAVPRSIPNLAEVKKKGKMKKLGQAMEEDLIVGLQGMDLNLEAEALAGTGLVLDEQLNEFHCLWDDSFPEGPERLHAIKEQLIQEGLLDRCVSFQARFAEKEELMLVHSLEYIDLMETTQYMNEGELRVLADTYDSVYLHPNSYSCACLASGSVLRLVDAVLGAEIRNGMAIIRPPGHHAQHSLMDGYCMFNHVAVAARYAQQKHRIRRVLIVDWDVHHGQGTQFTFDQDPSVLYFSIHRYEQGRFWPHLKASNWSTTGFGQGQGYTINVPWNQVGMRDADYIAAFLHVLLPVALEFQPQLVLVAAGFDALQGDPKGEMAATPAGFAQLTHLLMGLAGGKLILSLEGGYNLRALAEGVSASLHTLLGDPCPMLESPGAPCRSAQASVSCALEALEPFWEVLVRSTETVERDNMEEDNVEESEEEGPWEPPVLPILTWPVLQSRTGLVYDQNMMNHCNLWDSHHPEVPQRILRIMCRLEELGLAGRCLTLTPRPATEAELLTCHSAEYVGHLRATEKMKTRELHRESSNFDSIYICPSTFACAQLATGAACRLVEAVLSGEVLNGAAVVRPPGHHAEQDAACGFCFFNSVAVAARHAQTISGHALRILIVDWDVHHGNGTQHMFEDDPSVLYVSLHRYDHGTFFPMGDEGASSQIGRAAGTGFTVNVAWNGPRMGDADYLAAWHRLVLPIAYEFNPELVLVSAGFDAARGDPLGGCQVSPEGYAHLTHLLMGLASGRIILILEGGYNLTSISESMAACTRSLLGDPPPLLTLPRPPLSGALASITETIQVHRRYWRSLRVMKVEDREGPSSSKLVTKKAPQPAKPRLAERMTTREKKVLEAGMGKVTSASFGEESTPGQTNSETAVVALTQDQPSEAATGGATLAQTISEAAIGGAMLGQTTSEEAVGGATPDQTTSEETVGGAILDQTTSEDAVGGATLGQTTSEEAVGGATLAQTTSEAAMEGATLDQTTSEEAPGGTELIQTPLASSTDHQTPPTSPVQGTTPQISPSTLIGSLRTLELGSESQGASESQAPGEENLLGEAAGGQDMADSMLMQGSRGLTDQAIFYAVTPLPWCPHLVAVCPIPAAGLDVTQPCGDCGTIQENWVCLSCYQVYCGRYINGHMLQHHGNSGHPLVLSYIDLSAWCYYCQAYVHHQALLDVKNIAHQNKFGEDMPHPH

Histone deacetylase 8 = Histone deacetylase 8 (Homo sapiens, UniProt Q9BY41); assay: Inhibition of HDAC8 (unknown origin)
Sequence of Histone deacetylase 8 (Q9BY41 whole entry): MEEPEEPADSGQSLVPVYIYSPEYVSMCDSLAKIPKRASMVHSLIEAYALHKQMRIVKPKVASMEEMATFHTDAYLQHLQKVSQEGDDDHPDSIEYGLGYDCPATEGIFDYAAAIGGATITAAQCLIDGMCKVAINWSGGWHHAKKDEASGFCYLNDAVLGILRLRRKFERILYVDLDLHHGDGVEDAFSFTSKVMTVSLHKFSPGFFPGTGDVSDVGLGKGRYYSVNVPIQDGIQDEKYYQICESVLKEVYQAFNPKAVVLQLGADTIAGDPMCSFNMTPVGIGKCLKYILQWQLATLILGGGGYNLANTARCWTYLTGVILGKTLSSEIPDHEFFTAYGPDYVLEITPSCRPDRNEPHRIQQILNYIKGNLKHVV

U-937 [9] = assay: Cytotoxicity against human U-937 cells assessed as inhibition of cell growth by MTT assay; format: functional, cell-based
K562 = assay: Cytotoxicity against human K562 cells assessed as inhibition of cell growth by MTT assay; format: functional, cell-based
PLC-PRF-5 = assay: Cytotoxicity against human PLC-PRF-5 cells assessed as inhibition of cell growth by MTT assay; format: functional, cell-based
PC-3 [10] = assay: Cytotoxicity against human PC-3 cells assessed as inhibition of cell growth by MTT assay; format: functional, cell-based
ES-2 = assay: Cytotoxicity against human ES2 cells assessed as inhibition of cell growth by MTT assay; format: functional, cell-based
HepG2 = assay: Cytotoxicity against human HepG2 cells assessed as inhibition of cell growth by MTT assay; format: functional, cell-based
Jurkat E6.1 = assay: Cytotoxicity against human Jurkat E6.1 cells assessed as inhibition of cell growth by MTT assay; format: functional, cell-based
[11] = target: Histone deacetylase 8 (Homo sapiens) (UniProt Q9BY41); assay: Inhibition of HDAC8 (unknown origin) at 25 nM relative to control
Sequence of Histone deacetylase 8 (Homo sapiens) (Q9BY41 whole entry): as above

SMMC-7721 = assay: Cytotoxicity against human SMMC-7721 cells assessed as inhibition of cell growth by MTT assay; format: functional, cell-based
NCI-H460 = assay: Cytotoxicity against human NCI-H460 cells assessed as inhibition of cell growth by MTT assay; format: functional, cell-based
EJ = assay: Cytotoxicity against human EJ cells assessed as inhibition of cell growth by MTT assay; format: functional, cell-based
PC-3 [12] = assay: Cytotoxicity against human PC-3 cells assessed as inhibition of cell growth by SRB assay; format: functional, cell-based
A549 = assay: Cytotoxicity against human A549 cells assessed as inhibition of cell growth by SRB assay; format: functional
HCT-116 [13] = assay: Cytotoxicity against human HCT-116 cells assessed as inhibition of cell growth by SRB assay; format: functional, cell-based
Hep 3B2 = assay: Cytotoxicity against human Hep3B cells assessed as inhibition of cell growth by MTT assay; format: functional
[14] = target: Histone deacetylase (Homo sapiens) (UniProt Q13547+O15379+Q9UBN7+Q92769+Q9UQL6+Q8WUI4+Q9BY41+Q96DB2+P56524+Q9UKV0+Q969S8); assay: Potency index, ratio of vorinostat IC50 to test compound IC50 for inhibition of HDAC (unknown origin); format: protein assay
MDA-MB-231 = assay: Antitumor activity against human MDA-MB-231 cells xenografted in mouse assessed as reduction on tumor volume at 20 mg/kg, ip relative to control; format: functional; parameters: scale not given: the % may be the effect or the level left

Cn1cnc(-c2ccc(F)cc2)c1-c1ccc(/C=C/C(=O)NO)cc1
IC50 (518A2): 300 nM | IC50 (HCT-116 [1]): 300 nM | IC50 (PANC-1): 300 nM | IC50 (HT-29): 300 nM | IC50 [2]: 300 nM | IC50 (KB-V1): 300 nM | IC50 [3]: > 150000 nM

O=C(/C=C/c1ccc(S(=O)(=O)Nc2ccccc2C(F)(F)F)cc1)NO
IC50 (HL-60): 770 nM | IC50 [4]: 770 nM

COc1cc(/C=C2\N=C(c3ccccc3)N(n3c(SCC(=O)NO)nnc3-c3ccccc3)C2=O)ccc1O
GI50 (MCF7 [5]): 24900 nM | IC50 (Histone deacetylase): 90 nM

CNC(=O)c1cc(Oc2ccc(NC(=O)Nc3ccc(Cl)c(C(F)(F)F)c3)cc2)ccn1 [SORAFENIB]
IC50 (Ramos): 1 nM | IC50 (SU-DHL-6): 1 nM | IC50 (SNU-398): 1 nM

O=C(NO)c1cn(C2CCN(C(=O)Cc3ccc4ccccc4c3)CC2)nn1
IC50 (Histone deacetylase 3): 1000 nM | IC50 (HL-60): 1200 nM | IC50 (U-937 [6]): 1200 nM | IC50 (NCI-H929): 1200 nM | IC50 (U-266): 1200 nM | IC50 (SH-SY5Y): 1200 nM | IC50 (MCF7 [7]): 1200 nM | IC50 (Histone deacetylase 1): 1000 nM | IC50 (Histone deacetylase 2): 1000 nM | IC50 [8]: 1000 nM | IC50 (Histone deacetylase 8): 1000 nM

NC(=O)N1N=C(c2ccccc2)CC1c1ccccc1OCC(=O)NO (stereo not given)
IC50 (U-937 [9]): 18700 nM | IC50 (K562): 18700 nM | IC50 (PLC-PRF-5): 18700 nM | IC50 (PC-3 [10]): 18700 nM | IC50 (ES-2): 18700 nM | IC50 (HepG2): 18700 nM

Nc1ccnc(NC(=O)[C@@H](N)CCCCC(=O)NO)n1
IC50 (Jurkat E6.1): 20000 nM | inhibition [11]: 75%

COc1cccc2c1C(=O)c1c(O)c3c(c(O)c1C2=O)C[C@@](O)(C(=O)CO)C[C@@H]3O[C@H]1C[C@H](N)[C@H](O)[C@H](C)O1 [DOXORUBICIN HYDROCHLORIDE]
GI50 (MCF7 [5]): 50200 nM

CC(C)=CCC/C(C)=C/CC/C(C)=C/CSc1ccccc1C(=O)O [SALIRASIB]
IC50 (HepG2): 48600 nM | IC50 (SMMC-7721): 48600 nM | IC50 (NCI-H460): 48600 nM | IC50 (EJ): 48600 nM

Cc1c(CCNS(=O)(=O)c2ccc(/C=C/C=C/C(=O)NO)cc2)c2ccccc2n1C
IC50 (Histone deacetylase): 3.4 nM | GI50 (PC-3 [12]): 20 nM | GI50 (A549): 20 nM | GI50 (HCT-116 [13]): 20 nM | GI50 (Hep 3B2): 20 nM | Ratio IC50 [14]: 35

O=C(CCCCCCC(=O)Nc1ccccc1)NO [VORINOSTAT]
Activity (MDA-MB-231): 40%
